From patent US20220213070A1, “COMPOUNDS INHIBITING TDG ACTIVITY” (EPITAS BIOSCIENCES (SHANGHAI) CO., LTD., priority 2019, published 2022)

How the values were obtained:
[1] = test system: Lung cancer cell line Calu-1; assay: Inhibition of the growth of Calu-1 cells (CellTiter-Glo, 72 hours); assay type: cell-based; conditions: Homo sapiens, 72 hours of culturing, read-out: Inhibitory activity on alu-1 cell growth IC50
Method: 14.2 Experimental Determination of Compound's Inhibitory Rate on the Growth of Calu-1 Cells
Lung cancer cell line Calu-1 was cultured in 90% McCoy's 5A medium (BI, 01-075-1ACS)+10% fetal bovine serum (Gibco, 10270106), placed in a CO2 incubator (37° C., 5% CO2, 95% air) for culturing. Calu-1 cells were digested with trypsin (Gibco, 12604-021) and seeded in a 384-well plate at a density of 500 cells per well. The medium was 50 μL and it was cultured overnight at 37° C. in an incubator. On the next day, different concentrations of test compounds were added, and the final concentration of DMSO was 0.1%. After 72 hours of culturing, the cells were taken out for test. The cell culture medium from the 384-well plate to be tested was removed, and fresh culture medium premixed with CTG was immediately added: the ratio of the culture medium to CellTiter-Glo® 2.0 reagent (Promega, G9243) was 2:1, 30 ul was added to each well. The plate was shaken at room temperature for 20 minutes, and then a multi-function plate reader (TECAN, Infinite 200 Pro) was used according to the reagent instructions to determine the cell survival.
According to the biological method described in this example, the selected compounds of the present invention were analyzed, and the results are shown in Table 1. Among them, “++” in Table 1 refers to the inhibitory activity on the growth of calu-1 cells with IC50≤5 μM; “+” refers to the inhibitory activity on the growth of calu-1 cells with IC50>5 μM.

TDG [2] = biological target: T1, TDG (Homo sapiens, UniProt Q13569); assay: TDG inhibitory activity of compounds in cells (caC-cmv-firefly luciferase reporter, HEK 293T TDG KO cells transfected with pCDNA4-TDG); assay type: cell-based; conditions: read-out: Inhibition rate on TDG activity
Method: Experimental Determination of TDG Inhibitory Activity of Compounds in Cells
The operation steps of this example are as follows:
(1) Preparation of Methylation Reporter Plasmid:
(a) SAM with a stock solution concentration of 32 mM was diluted with ultrapure water to 1600 μM;
(b) The reaction system was prepared according to the following ratio: 30 μl ultrapure water, 5 μl 10×NEBuffer 2, 5 μl diluted SAM, 1 μg pCpGL-CMV-firefly plasmid, 1 μl SssI methylase (4 U/μl); 50 μl in total, the reaction was carried out at 37° C. for 2 hours;
(c) The mixture was heated at 65° C. for 20 minutes. Then 0.2% SDS was added, the reaction was carried out at 80° C. for 10 min; and then 1 μl Proteinase K was added, the reaction was carried out at 50° C. for 1 h;
(d) The methylated plasmid was recovered with Dr. GenTLE® sedimentation aid (TAKARA).
(2) Preparation of 5fC/5caC pCpGL-CMV-Firefly Reporter Plasmid
(a) The following 10× reaction system was prepared:
(b) The reaction system was prepared according to the following ratio:
(c) The reaction was carried out at 37° C. for one hour;
(d) 24 μg Tet1 protein was added for the second time and the reaction was continued for one hour;
(e) SDS was added to a final concentration of 0.5%, 80° C., 10 minutes, then 1 μl Proteinase K was added, 55° C. overnight.
(f) The treated caC-cmv-firefly plasmid was recovered with Dr. GenTLE® sedimentation aid (TAKARA) and was quantified.
(3) Using the Luciferase Activity Assay Method to Detect the Inhibitory Rate of Small Molecule Compounds on Intracellular TDG Enzyme Activity
In a 96-well plate, the reaction system and operation flow of each well were as follows:
(a) 1 ng caC-cmv-firefly, Ing pCpGL-CMV-Relina and 150 ng pCDNA4-TDG or 150 ng pCDNA4-myc plasmid, were diluted to 75 ul Opti-MEM, mixed well and allowed to stand still for 5 minutes;
(b) 2 ul transfection reagent (Hieff Trans™ Liposomal transfection Reagent (0.5 ul/well, YEAEEN, Cat #40802)) was diluted in 100 ul Opti-MEM, mixed well and allowed to stand still for 5 minutes;
(c) 75 ul of (a) and (b) were mixed respectively, and allowed to stand still at room temperature for 20 minutes;
(d) HEK 293T TDG KO cells were digested with trypsin, the cells were collected and counted, and the suspension cell concentration was adjusted to 4×10^5/ml;
(e) 50 ul of the mixture (c) was added to each well, and at the same time 100 ul of the diluted cell suspension was added to the same well, and they were mixed well.
(f) After the cells adhering to the wall, different concentrations of small molecule compounds to be tested were added to each well.
(g) Incubation was performed in a 37° C. CO2 incubator for 72 hours. The supernatant was removed and the cells were quickly freezed at −80° C.
(h) Before detecting the luciferase activity, the cells to be tested were removed from −80° C. and allowed to stand still at room temperature for 30 minutes. Following the instructions of Dual-Glo® Luciferase Reagent (PROMEGA), the firefly fluorescence value and Renilla fluorescence value of each well were detected.
(i) The firefly fluorescence value was divided with the Renilla fluorescence value of each well; 96-well plate Z′ and experimental window was calculated by the ratio of transfected caC-cmv-firefly, pCpGL-CMV-Relina, pCDNA4-TDG plasmid mixture plus DMSO experimental group to transfected caC-cmv-firefly, pCpGL-CMV-Relina, pCDNA4-myc plasmid mixture plus DMSO experimental group, and the relative enzyme activity inhibition rate of each compound was calculated.
According to the biological method described in this example, the selected compounds of the present invention were analyzed, and the results are shown in Table 2. Among them, “+” in Table 2 refers to the compound's TDG inhibitory activity at a concentration of 10 μM≤25%; “++” refers to the compound's TDG inhibitory activity at a concentration of 10 μM>25%.

TDG [3] = biological target: T1, TDG; assay: Inhibition of TDG mismatch repair activity (fluorescent G·U double-stranded DNA probe T1-T2); assay type: biochemical; conditions: TDG 100 nM/L, preincubated with compound 37° C. 30 minutes; probe 30 nM; read-out: Inhibitory activity on TDG mismatch repair IC50
Excerpt: 14.1 Experimental Determination of Compound's Inhibitory Rate on TDG Mismatch Repair Activity
(1) A double-stranded DNA probe T1-T2 containing uracil bases was synthesized. The nucleotide sequence of the T1 chain was: 5′-FAM-TAAUGTGAATGGAGCTGAAAT-biotin-3′; The nucleotide sequence of the T2 chain was 5′-ATTTCAGCTCCATTCACGTTA-3′. Using PCR annealing program, the T1 strand and T2 strand were complementary to form a double-stranded DNA probe T1-T2.
(2) The reaction system and steps for each well of a 96-well plate were as follows: a. TDG (100 nM/L) was mixed with different concentrations of compounds, and the mixture was incubated at 37° C. for 30 minutes. The composition of the reaction buffer was: 20 mM HEPES pH7.5, 100 mM NaCl, 0.2 mM EDTA, 2.5 mM MgCl2; b. The double-stranded DNA probe T1-T2 was added to the mixture to obtain a final volume of 100 μL, with a concentration of 30 nM, and the mixture was incubated at 25° C. for 30 min; c. 1 μL of streptavidin magnetic beads were added to the reaction solution and fully bound the biotin-labeled DNA for 1 hour; d. NaOH was added to the reaction solution to a final concentration of 200 mM, and the mixture was incubated at room temperature for 30 minutes; e. Under the action of a magnetic stand the streptavidin magnetic beads were adsorbed to the tube wall, the supernatant was transferred to a new 96-well plate, and placed in a Tecan microplate reader for fluorescence measurement. The parameter settings were: excitation wavelength 485 nm; emission wavelength 520 nm. A linear curve between fluorescence intensity and TDG concentration was constructed, R^2=0.9968, and the linear range was 0-50 nM/L;
According to the biological method described in this example, the selected compounds of the present invention were analyzed, and the results are shown in Table 1. Among them, “++” in Table 1 refers to the inhibitory activity for TDG mismatch repair with IC50≤5 μM; “+” refers to the inhibitory activity for TDG mismatch repair with IC50>5 μM.

T1 sequence (Q13569 whole entry): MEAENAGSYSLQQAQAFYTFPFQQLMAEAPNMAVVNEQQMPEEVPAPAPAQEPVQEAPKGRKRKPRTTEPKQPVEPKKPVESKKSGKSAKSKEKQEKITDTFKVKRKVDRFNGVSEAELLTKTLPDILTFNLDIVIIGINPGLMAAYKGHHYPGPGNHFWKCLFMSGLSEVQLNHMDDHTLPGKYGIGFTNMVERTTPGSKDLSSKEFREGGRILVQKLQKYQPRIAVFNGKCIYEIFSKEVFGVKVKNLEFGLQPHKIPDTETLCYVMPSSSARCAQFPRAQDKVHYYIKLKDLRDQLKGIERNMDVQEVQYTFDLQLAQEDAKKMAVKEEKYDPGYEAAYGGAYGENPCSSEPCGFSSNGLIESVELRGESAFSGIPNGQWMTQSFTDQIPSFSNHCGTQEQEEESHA

| Compound | IC50 [1] [µM] | inhibition at 10 µM (TDG [2]) [%] | IC50 (TDG [3]) [µM] |
| --- | --- | --- | --- |
| O=C(CCN1Cc2ccccc2C1)c1ccc2c(c1)OCO2 [Compound 35, 1-(benzo[d][1,3]dioxo1-5-yl)-3-(isoindolin-2-yl)propan-1-one] | ≤ 5 | < 25 | ≤ 5 |
| O=C(c1ccc2c(c1)OCCO2)N1Cc2ccccc2C1 [Compound 33, (2,3-dihydrobenzo[b][1,4]dioxin-6-yl)(isoindolin-2-yl)methanone] | > 5 | < 25 | > 5 |
| O=C(CCN1CCN(c2ncccn2)CC1)c1ccc2c(c1)OCCO2 [Compound 19, 1-(2,3-dihydrobenzo[b][1,4]dioxin-6-yl)-3-(4-(pyrimidin-2-yl)piperazin-1-yl)propan-1-one] | ≤ 5 | < 25 | > 5 |
| O=C(CCN1CCC(c2ccccc2)CC1)c1ccc2c(c1)OCCO2 [Compound 21, 1-(2,3-dihydrobenzo[b][1,4]dioxin-6-yl)-3-(4-phenylpiperidin-1-yl)propan-1-one] | > 5 | < 25 | ≤ 5 |
| O=C(CCN1Cc2ccc(Cl)cc2C1)c1ccc2c(c1)OCCO2 [Compound 4, 3-(5-chloroisoindolin-2-yl)-1-(2,3-dihydrobenzo[b][1,4]dioxin-6-yl)propan-1-one] | > 5 | < 25 | ≤ 5 |
| CC(C)(C)OC(=O)NCC1(O)CN(CCC(=O)c2ccc3c(c2)OCCO3)C1 [Compound 23, tert-butyl ((1-(3-(2,3-dihydrobenzo[b][1,4]dioxin-6-yl)-3-oxopropyl)-3-hydroxyazetidin-3-yl)methyl)carbamate] | > 5 | < 25 | > 5 |
| O=C(CCN1CCC(c2ccc([N+](=O)[O-])cc2)C1)c1ccc2c(c1)OCCO2 (stereo not drawn) [Compound 46, 1-(2,3-dihydrobenzo[b][1,4]dioxin-6-yl)-3-(3-(4-nitrophenyl)pyrrolidin-1-yl)propan-1-one] | ≤ 5 | < 25 | ≤ 5 |
| O=C(CCN1CCC(O)(c2ccc(F)cc2)C1)c1ccc2c(c1)OCCO2 (stereo not drawn) [Compound 43, 1-(2,3-dihydrobenzo[b][1,4]dioxin-6-yl)-3-(3-(4-fluorophenyl)-3-hydroxypyrrolidine-1-yl)propan-1-one] | ≤ 5 | < 25 | ≤ 5 |
| O=C(CCN1Cc2ccccc2C1)c1ccc2c(c1)OCCO2 [Compound 1, 1-(2,3-dihydrobenzo[b][1,4]dioxin-6-yl)-3-(isoindolin-2-yl)propan-1-one] | ≤ 5 | > 25 | ≤ 5 |
| O=C(CCN1Cc2ccc(Br)cc2C1)c1ccc2c(c1)OCCO2 [Compound 3, 3-(5-bromoisoindolin-2-yl)-1-(2,3-dihydrobenzo[b][1,4]dioxin-6-yl)propan-1-one] | > 5 | < 25 | ≤ 5 |
| O=C(CCN1C(=O)c2ccccc2C1=O)c1ccc2c(c1)OCCO2 [Compound 12, 2-(3-(2,3-dihydrobenzo[b][1,4]dioxin-6-yl)-3-oxopropyl)isoindole-1,3-dione] | > 5 | < 25 | > 5 |
| N#Cc1ccc(C2CCN(CCC(=O)c3ccc4c(c3)OCCO4)C2)cc1 (stereo not drawn) [Compound 50, 4-(1-(3-(2,3-dihydrobenzo[b][1,4]dioxin-6-yl)-3-oxopropyl)pyrrolidin-3-yl)benzonitrile] | ≤ 5 | > 25 | ≤ 5 |
| Nc1ccc2c(c1)CN(CCC(=O)c1ccc3c(c1)OCCO3)C2 [Compound 9, 3-(5-aminoisoindolin-2-yl)-1-(2,3-dihydrobenzo[b][1,4]dioxin-6-yl)propan-1-one] | ≤ 5 | > 25 | ≤ 5 |
| O=C(CCN1Cc2ccccc2C1)c1ccc2c(c1)CCCN2 [Compound 30, 3-(isoindolin-2-yl)-1-(1,2,3,4-tetrahydroquinolin-6-yl)propan-1-one] | > 5 | < 25 | > 5 |
| OC(CCN1Cc2ccccc2C1)c1ccc2c(c1)OCCO2 (stereo not drawn) [Compound 10, 1-(2,3-dihydrobenzo[b][1,4]dioxin-6-yl)-3-(isoindolin-2-yl)propan-1-ol] | > 5 | < 25 | > 5 |
| O=C(CCN1CCOc2ccccc21)c1ccc2c(c1)OCCO2 [Compound 15, 3-(2,3-dihydro-4H-benzo[b][1,4]oxazin-4-yl)-1-(2,3-dihydrobenzo[b][1,4]dioxin-6-yl)propan-1-one] | > 5 | < 25 | > 5 |
| O=C(CCN1Cc2ccccc2C1)c1ccc2c(c1)SCCO2 [Compound 37, 1-(2,3-dihydrobenzo[b][1,4]oxathion-6-yl)-3-(isoindolin-2-yl)propan-1-one] | > 5 | < 25 | > 5 |
